“And” between values parts separate entries of the source, which are not always exact repeats. Equal entries are not always repeated. Bridge positions count the residues as written; N and C are the ends. Square brackets hold non-standard residues; d marks the D form. Peptide text beside a SMILES is read from it. * marks the point of attachment. X1 = C=CCN1CC[C@]23c4c5ccc(O)c4O[C@H]2[C@H](N*)CC[C@@]3(O)[C@H]1C5

This is an account of results in paper PMC10698194 (Nature Communications, 2023).

The target in experiment [1] is T1, mouse KOR (Mus musculus, UniProt P33534). Put plainly: biochemical. The following applies: for specific [3H]DPN binding, normalized to 100%: replicates; for Ki: [3H]DPN 1 nM, read-out: Ki. The class given is binding. On the set-up: expressed in transfected cells.
T1 sequence (P33534 whole entry): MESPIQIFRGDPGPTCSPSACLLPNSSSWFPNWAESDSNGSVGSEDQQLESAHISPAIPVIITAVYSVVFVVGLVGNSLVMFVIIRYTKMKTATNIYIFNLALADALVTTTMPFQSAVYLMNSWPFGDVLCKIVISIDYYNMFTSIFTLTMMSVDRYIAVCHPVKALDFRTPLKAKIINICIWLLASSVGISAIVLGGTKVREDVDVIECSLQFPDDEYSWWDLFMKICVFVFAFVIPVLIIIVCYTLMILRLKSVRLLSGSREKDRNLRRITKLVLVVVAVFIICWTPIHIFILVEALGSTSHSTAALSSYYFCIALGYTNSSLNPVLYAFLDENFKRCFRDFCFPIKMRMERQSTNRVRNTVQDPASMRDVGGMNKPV
For experiment [2], the target named is T1, mouse KOR. Put plainly: cell-based. On the set-up: expressed in transfected cells. The following applies: for Emax: HEK-293T, read-out: Emax cAMP assay; for EC50: read-out: EC50 cAMP assay. In general terms: Changes in cAMP serve as a functional read-out for many G protein-coupled receptors.

By Ki is commonly meant a measure of affinity in units of concentration, obtained from inhibition or displacement. As a reminder, the Emax is the maximal effect, on the per cent scale that the assay sets. By EC50 is commonly meant the concentration needed to bring the measured effect to its halfway point. As to `C=CCN1CC[C@]23c4c5ccc(O)c4O[C@H]2[C@H](NC(=O)[C@@H](Cc2ccccc2)NC(=O)[C@H](CO)NC(=O)[C@@H]2CSCC(=O)N[C@H]([C@H](C)O)C(=O)N[C@@H](CC(N)=O)C(=O)N[C@H](CCC(=O)O)C(=O)N[C@H](CO)C(=O)N[C@H](CC(C)C)C(=O)N2)CC[C@@]3(O)[C@H]1C5` [DNCP-β-NalA(2)] ({CH2CO}-[dT]N[dE][dS][dL]CS[dF]-X1; thioether N-6), the “specific [3H]DPN binding, normalized to 100%” value (from here on “specific … normalized to 100%”) on mouse KOR [1] (Log [ligand] (M) -5) was 0.2531 and 1.3817 and 8.417; on mouse KOR [1] (Log [ligand] (M) -5.5) it was 5.254 and 5.706 and 15.2738; at mouse KOR [1] (Log [ligand] (M) -6), 8.812 and 8.467 and 22.3516; on mouse KOR [1] (Log [ligand] (M) -6.5), 20.0364 and 16.1798 and 28.5928; on mouse KOR [1] (Log [ligand] (M) -7), 30.6965 and 29.2448 and 46.3656; on mouse KOR [1] (Log [ligand] (M) -7.5) it was 73.9679 and 58.4159 and 82.1752. Also, the “specific … normalized to 100%” value on mouse KOR [1] (Log [ligand] (M) -8) is 84.0925 and 77.2121 and 90.6295; on mouse KOR [1] (Log [ligand] (M) -8.5), 94.004 and 85.6847 and 98.8664; at mouse KOR [1] (Log [ligand] (M) -9), 85.0018 and 88.1692 and 96.9444; on mouse KOR [1] (Log [ligand] (M) -9.5) it was 100. Also, the Ki on mouse KOR [1] stood at 31 nM. On mouse KOR [2], the maximum response (Emax) came out at 89 ± 2%. For the same molecule, the half-maximal effective concentration (EC50) at mouse KOR [2] worked out at 7.5 nM.

Take `C=CCN1CC[C@]23c4c5ccc(O)c4O[C@H]2[C@H](NC(=O)[C@@H](Cc2ccccc2)NC(=O)[C@@H](NC(=O)[C@@H]2CSCC(=O)N[C@@H](CC(=O)O)C(=O)N[C@@H](C)C(=O)N[C@H](Cc4ccc(O)cc4)C(=O)N[C@H](C)C(=O)N[C@@H](C(C)C)C(=O)N2)[C@@H](C)O)CC[C@@]3(O)[C@H]1C5` [DNCP-β-NalA(3)] ({CH2CO}-DA[dY][dA]VCT[dF]-X1; thioether N-6): the “specific … normalized to 100%” value was 4.711 and 4.268 and 3.134 at mouse KOR [1] (Log [ligand] (M) -5); 9.049 and 8.477 and 7.931 at mouse KOR [1] (Log [ligand] (M) -5.5); 13.9379 and 12.8705 and 12.6183 on mouse KOR [1] (Log [ligand] (M) -6); 21.3908 and 20.9203 and 21.0807 on mouse KOR [1] (Log [ligand] (M) -6.5); 41.59 and 36.2221 and 28.4597 at mouse KOR [1] (Log [ligand] (M) -7); 75.8729 and 62.6776 and 54.9604 at mouse KOR [1] (Log [ligand] (M) -7.5). For the same molecule, the “specific … normalized to 100%” value on mouse KOR [1] (Log [ligand] (M) -8) was 98.7879 and 86.9193 and 89.7517; at mouse KOR [1] (Log [ligand] (M) -8.5) it was 102.113 and 95.9134 and 97.9933; on mouse KOR [1] (Log [ligand] (M) -9), 101.53 and 101.749 and 103.107; at mouse KOR [1] (Log [ligand] (M) -9.5), 100. For the same molecule, the inhibitory constant (Ki) at mouse KOR [1] is 24 nM. Besides, on mouse KOR [2], the Emax was 99 ± 1%. In addition, the EC50 on mouse KOR [2] was 14 nM.

Consider `C=CCN1CC[C@]23c4c5ccc(O)c4O[C@H]2[C@H](NC(=O)[C@@H](Cc2ccccc2)NC(=O)[C@H](CO)NC(=O)[C@@H]2CSCC(=O)N[C@H](CO)C(=O)N[C@H](CC(=O)O)C(=O)N[C@H](Cc4c[nH]cn4)C(=O)N[C@@H](C)C(=O)N[C@@H](C)C(=O)N2)CC[C@@]3(O)[C@H]1C5` [DNCP-β-NalA(4)], for which the “specific … normalized to 100%” value at mouse KOR [1] (Log [ligand] (M) -5) is 7 and 5.59 and 5.4127; at mouse KOR [1] (Log [ligand] (M) -5.5), 12.4013 and 7.976 and 9.019; on mouse KOR [1] (Log [ligand] (M) -6) it was 12.817 and 12.3329 and 11.7119; on mouse KOR [1] (Log [ligand] (M) -6.5), 19.572 and 16.0481 and 16.106; on mouse KOR [1] (Log [ligand] (M) -7), 34.7156 and 27.5243 and 29.2083; at mouse KOR [1] (Log [ligand] (M) -7.5) it was 62.865 and 48.8054 and 54.3277. Moreover, the “specific … normalized to 100%” value at mouse KOR [1] (Log [ligand] (M) -8) is 85.7392 and 63.6235 and 68.5184; on mouse KOR [1] (Log [ligand] (M) -8.5), 110.569 and 79.1117 and 88.8606; at mouse KOR [1] (Log [ligand] (M) -9) it was 116.546 and 94.2824 and 100.104; at mouse KOR [1] (Log [ligand] (M) -9.5), 100. In addition, the Emax at mouse KOR [2] is 101 ± 2%. The 50% effective concentration (EC50) at mouse KOR [2] amounted to 1 nM.
